These results are taken from patent US20230141600A1, “IMIDAZOPYRAZINE DERIVATIVES” (priority 2020, published 2023).

Structures can show the parent of a compound that is named as a salt.

One may read the IC90 as the concentration needed for an effect of 90%.

The first experiment concerns Acinetobacter baumannii ATCC17961. The experiment in a line: 90% growth inhibitory concentration (IC90) determination, antimicrobial susceptibility testing. It is filed as cell-based. Conditions: Acinetobacter baumannii, ATCC17961, 16 h, 90% growth inhibition, Iso-Sensitest broth, OD 600 nm over 16 h, 35±2° C.; read-out: ATCC 17961 IC90. In outline: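 Twofold serial dilutions (e.g. 50 to 0.097 μM final) in Iso-Sensitest broth, inoculated at ~5×10^5 CFU/ml and incubated at 35±2 °C for 16 h with OD600 read every minute. IC90 taken from growth inhibition during the logarithmic phase.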
On to `C[N+]1(CC2CCNC2)CCC(C(=O)N2CCN(C(=O)c3ccc(Nc4nccn5c(-c6ccc(OC(F)F)c(F)c6F)cnc45)cc3F)CC2)CC1` (stereo not drawn) [Example 103, [4-[[3-[4-(Difluoromethoxy)-2,3-difluoro-phenyl]imidazo[1,2-a]pyrazin-8-yl]amino]-2-fluoro-phenyl]-[4-[1-methyl-1-(pyrrolidin-3-ylmethyl)piperidin-1-ium-4-carbonyl]piperazin-1-yl]methanone 2,2,2-trifluoroacetate], for which the 90% effect concentration (IC90) stood at 77.9 nM.

`CCc1cc(Nc2nccn3c(-c4ccc(OC)c(F)c4F)cnc23)ccc1C(=O)NCCCCC[N+](C)(CCCCN)CC(=O)O` (stereo not drawn) [Example 105, 4-aminobutyl-(carboxymethyl)-[5-[[4-[[3-(2,3-difluoro-4-methoxy-phenyl)imidazo[1,2-a]pyrazin-8-yl]amino]-2-ethyl-benzoyl]amino]pentyl]-methyl-ammonium Formate]: the concentration for an effect of 90% (IC90) stood at 144 nM.

As for `CCc1cc(Nc2nccn3c(-c4ccc(OC)c(F)c4F)cnc23)ccc1C(=O)NCCCCC[N+](C)(CC(=O)O)CC1CNC1` (stereo not drawn) [Example 106, Azetidin-3-ylmethyl-(carboxymethyl)-[5-[[4-[[3-(2,3-difluoro-4-methoxy-phenyl)imidazo[1,2-a]pyrazin-8-yl]amino]-2-ethyl-benzoyl]amino]pentyl]-methyl-ammonium Formate], the concentration for an effect of 90% (IC90) is 241 nM.

`CCc1cc(Nc2nccn3c(-c4ccc(OC)c(F)c4F)cnc23)ccc1C(=O)NCCCCC[N+](C)(CCCC(=O)O)CC1CNC1` (stereo not drawn) [Example 107, Azetidin-3-ylmethyl-(3-carboxypropyl)-[5-[[4-[[3-(2,3-difluoro-4-methoxy-phenyl)imidazo[1,2-a]pyrazin-8-yl]amino]-2-ethyl-benzoyl]amino]pentyl]-methyl-ammonium 2,2,2-trifluoroacetate]: the IC90 turned out to be 434 nM.

As for `C[N+](C)(C)CCN[C@H]1C[C@@H](NC(=O)c2ccc(Nc3nccn4c(-c5c[nH]nc5C(F)(F)F)cnc34)cc2Cl)C1` [Example 108, 2-[[3-[[2-chloro-4-[[3-[3-(trifluoromethyl)-1H-pyrazol-4-yl]imidazo[1,2-a]pyrazin-8-yl]amino]benzoyl]amino]cyclobutyl]amino]ethyl-trimethyl-ammonium Formate], the IC90 worked out at 1590 nM.

For the compound `CCc1cc(Nc2nccn3c(-c4cn(CC#N)nc4C(F)(F)F)cnc23)ccc1C(=O)NCCCCC[N+](C)(CC(=O)O)CC1CNC1` (stereo not drawn) [Example 109, Azetidin-3-ylmethyl-(carboxymethyl)-[5-[[4-[[3-[1-(cyanomethyl)-3-(trifluoromethyl)pyrazol-4-yl]imidazo[1,2-a]pyrazin-8-yl]amino]-2-ethyl-benzoyl]amino]pentyl]-methyl-ammonium Formate], the 90% effect concentration (IC90) was found to be 3830 nM.

Regarding `CCc1cc(Nc2nccn3c(-c4cn(CC#N)nc4C(F)(F)F)cnc23)ccc1C(=O)NCCCCC[N+](C)(C)CC(=O)O` [Example 110, Carboxymethyl-[5-[[4-[[3-[1-(cyanomethyl)-3-(trifluoromethyl)pyrazol-4-yl]imidazo[1,2-a]pyrazin-8-yl]amino]-2-ethyl-benzoyl]amino]pentyl]-dimethyl-ammonium Formate], the IC90 stood at 4300 nM.

With `Cc1cc(Nc2nccn3c(-c4cn(C)nc4C(F)(F)F)cnc23)ccc1C(=O)N1CCN(C(=O)C[N+](C)(C)C)CC1` [Example 111, Trimethyl-[2-[4-[2-methyl-4-[[3-[1-methyl-3-(trifluoromethyl)pyrazol-4-yl]imidazo[1,2-a]pyrazin-8-yl]amino]benzoyl]piperazin-1-yl]-2-oxo-ethyl]ammonium Formate], the concentration for an effect of 90% (IC90) stood at 2800 nM.

Staying with this experiment, now noted: Acinetobacter baumannii, ATCC17961, 16 h, read-out: ATCC 17961 IC90.
For `CCc1cc(Nc2nccn3c(-c4ccc(OC)c(F)c4F)cnc23)ccc1C(=O)NCCCCC[N+](C)(CCCN)CC(=O)O` (stereo not drawn) [Example 104, 3-aminopropyl-(carboxymethyl)-[5-[[4-[[3-(2,3-difluoro-4-methoxy-phenyl)imidazo[1,2-a]pyrazin-8-yl]amino]-2-ethyl-benzoyl]amino]pentyl]-methyl-ammonium Formate], the 90% effect concentration (IC90) came to 118 nM.
